This is an account of results in PubChem BioAssay (NCI).

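Growth conditions: 96-well plates. Treatment: test compound, 48 hours, 5 concentrations. Analysis: linear interpolation between bracketing concentrations; unreached endpoints set to highest concentration. GI50: concentration for 50% inhibition of growth. TGI is the concentration that stops growth completely.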

Common to all, as to assay: NCI anticancer screen, dose series, 48 h
For assay [1], the system named is OVCAR-3 ovarian.
Assay [2] concerns ACHN renal.
The subject of assay [3] is SK-MEL-5 melanoma.
Assay [4] concerns RXF 393 renal.
Assay [5] relates to UACC-62 melanoma.
Assay [6] relates to SF-539 CNS.
In assay [7] the test system is NCI-H522 lung.
In assay [8] the test system is HL-60(TB) leukemia.

Consider `O=[N+]([O-])c1ccc2nc(/C=C(\O)c3ccc(Cl)cc3)c(/C=C(\O)c3ccc(Cl)cc3)nc2c1`, for which the TGI in assay [1], in assay [2], in assay [3], in assay [4], in assay [5] and in assay [6] was greater than 100 µM each time. In addition, in assay [7], the TGI is 60.7 µM.
For `COc1ccc(NC(=O)CC(=O)N2N=C(N(c3ccccc3)c3ccccc3)CC2c2ccccc2)cc1` (configuration not stated), the TGI in assay [1], in assay [2], in assay [4], in assay [5], in assay [8] and in assay [6] was greater than 100 µM in each case. The same molecule displayed a TGI in assay [7] greater than 100 µM.
For the molecule `Cc1ccc(/C=C2/NC(=S)SC2=O)cc1`, the TGI in assay [1], in assay [2], in assay [3], in assay [8] and in assay [6] was greater than 100 µM throughout.
On to `Cc1cc2nc(-c3c(N)ncc(C#N)c3-c3ccc(Cl)cc3)[nH]c2cc1C`, for which the GI50 in assay [1] was 13.9 µM; in assay [2], 11.1 µM; in assay [4] it was 3.18 µM; in assay [5], 11 µM; in assay [6] it was 2.07 µM; in assay [7], 4.07 µM. Also, the TGI is 76 µM in assay [1]; greater than 100 µM in assay [2]; 33.4 µM in assay [3]; 13.7 µM in assay [4]; 53.2 µM in assay [5]; 5.78 µM in assay [6]. This molecule came in with a TGI in assay [7] of 27.9 µM.
Turning to `CCOC(=O)CCC(NC(=O)OCc1ccccc1)C(=O)NC(CCC(=O)OCC)C(=O)NC(CCC(=O)OCC)C(=O)NNC(=O)OC(C)(C)C` (configuration not stated), the TGI in assay [2], in assay [3], in assay [4], in assay [5] and in assay [8] was greater than 100 µM throughout.
Consider `CCn1c(=O)c2c3ccc(OC(C)=O)cc3[nH]c2c2ccc(OC(C)=O)cc21`, for which the TGI was greater than 100 µM in assay [1]; 89.6 µM in assay [2]; greater than 100 µM in assay [3]; greater than 100 µM in assay [4]; greater than 100 µM in assay [5]; greater than 100 µM in assay [6]. Further, in assay [7], the TGI was greater than 100 µM.
In the case of `C=CCc1ccccc1C1CC2(C(=O)OC)OC1C(C(=O)OC)=C2C(=O)OC` (configuration not stated), the TGI in assay [1], in assay [2], in assay [3], in assay [4], in assay [5] and in assay [8] was greater than 10 µM in each case. This molecule also registered a TGI in assay [6] greater than 10 µM.
In the case of `COc1ccccc1NC(=S)N/N=C/c1ccccn1`, the TGI worked out at 8.9 µM in assay [2]; 2.71 µM in assay [3]; 94.1 µM in assay [4]; 3.75 µM in assay [5]; 0.693 µM in assay [8]; 5.07 µM in assay [6]. Also, the TGI in assay [7] stood at 10.9 µM.
As to `NC(=S)N/N=C1\CCCC1C(O)(C(F)(F)Cl)C(F)(F)Cl` (configuration not stated), the TGI in assay [1] was greater than 10 µM; in assay [2] it was greater than 10 µM; in assay [3] it was 7.44 µM; in assay [4] it was greater than 10 µM; in assay [5], greater than 10 µM; in assay [6], greater than 10 µM. The same molecule gave a TGI in assay [7] greater than 10 µM.
Turning to `CC1(C)[C@@H](OC(N)=O)C=C[C@]2(CO)[C@H]3CC[C@]4(C)[C@@H](c5ccc(=O)oc5)[C@@H](Cl)C[C@]4(O)C3=CC[C@@H]12`, the GI50 in assay [1] was less than 0.0001 µM; in assay [2], less than 0.0001 µM; in assay [3], 0.00269 µM; in assay [5], 0.00358 µM; in assay [7] it was less than 0.0001 µM. Besides, the TGI is 0.00411 µM in assay [1]; 0.00262 µM in assay [2]; 0.0158 µM in assay [3]; 0.013 µM in assay [5]; 0.00305 µM in assay [7].
For `Cn1ccc2c(c1=O)C(=O)OC2(C)C`, the TGI in assay [1], in assay [2], in assay [3], in assay [4], in assay [5] and in assay [8] was greater than 100 µM each time. For the same molecule, the TGI in assay [6] is greater than 100 µM.
As for `NNC(=O)Cn1ccnn1`, the TGI in assay [2], in assay [3], in assay [8] and in assay [7] was greater than 100 µM throughout.
For the molecule `O=C(O)CCSC1=NCCN1`, the TGI in assay [1], in assay [2], in assay [3], in assay [4], in assay [5] and in assay [8] was greater than 100 µM each time. The TGI in assay [7] was greater than 100 µM.
On to `C=C(C)[C@@H]1CC[C@]2(CO)CC[C@]3(C)[C@H](CC[C@@H]4[C@@](C)(CCCN)[C@H](C(=C)C)CC[C@]43C)[C@@H]12`, for which the GI50 in assay [1] is 1.59 µM; in assay [2], 1.82 µM; in assay [5] it was 1.71 µM; in assay [8], 1.78 µM; in assay [6], 1.63 µM. Further, the TGI in assay [1] worked out at 2.96 µM; in assay [2], 3.21 µM; in assay [5] it was 3.09 µM; in assay [8], 3.61 µM; in assay [6], 2.99 µM.
As to `COc1ccc2c(c1)C(=O)C1CCC(=O)N1C2c1ccc2c(c1)OCO2` (configuration not stated), the TGI in assay [1] was 15.3 µM; in assay [2] it was 38.3 µM; in assay [3], 24.9 µM; in assay [5] it was 29.9 µM; in assay [8], 42.4 µM; in assay [6], 42.7 µM. In assay [7], this molecule registered a TGI of 21.6 µM.
For `COc1cc(CNC(=S)CCCCCCCCCCC(C)C)ccc1O`, the TGI in assay [2] is greater than 100 µM; in assay [3] it was greater than 100 µM; in assay [4] it was greater than 100 µM; in assay [5] it was greater than 100 µM; in assay [8] it was 70.2 µM; in assay [6] it was greater than 100 µM.
As to `O=c1c2cc(Br)ccc2ncn1COCc1ccccc1`, the TGI in assay [1] was greater than 100 µM; in assay [2], 74 µM; in assay [3], greater than 100 µM; in assay [4] it was greater than 100 µM; in assay [5], greater than 100 µM; in assay [6], greater than 100 µM.
Regarding `N#C/C(C(=O)Nc1ccccc1)=C(/N)N1CCCCC1`, the TGI in assay [1], in assay [2], in assay [3], in assay [5] and in assay [6] was greater than 100 µM in each case.
